As a reminder, the IC50 is the concentration needed to halve the response being measured.

Drawing on BindingDB's records for doi:10.1021/acs.jmedchem.9b01033 (Taipei Medical University, 2020), this text covers IC50 for one compound.

The nature of this assay: Inhibition of CFD in 10% human serum assessed as reduction in alternate complement pathway-mediated hemolysis incubated for 1 hr.

For `C[C@H](NC(=O)[C@@H]1C[C@H]2C[C@H]2N1C(=O)Cn1nc(C(N)=O)c2cccnc21)c1cccc(Cl)c1F`, the concentration for half-maximal inhibition (IC50) was 6 nM.
